# Activity calls are given as the source filed them. The rule behind the calls is not given here.
# Columns and labels:
# [1] = molecular target: Protein cereblon/Kelch-like ECH-associated protein 1 (Mus musculus) (UniProt Q9Z2X8+Q8C7D2); experiment: PROTAC activity at CRBN/Keap1 in mouse AML12 cells assessed as degradation of Keap1 protein at 1 uM incubated for 24 hrs by Western blotting analysis; assay type: cell-based
# [2] = molecular target: Kelch-like ECH-associated protein 1 (Homo sapiens, UniProt Q14145); experiment: Binding affinity to Keap1 (unknown origin) assessed as dissociation constant incubated for 200 sec by sensor chip immobilization based surface plasmon resonance analysis
# Chain of Kelch-like ECH-associated protein 1 (Q14145 whole entry): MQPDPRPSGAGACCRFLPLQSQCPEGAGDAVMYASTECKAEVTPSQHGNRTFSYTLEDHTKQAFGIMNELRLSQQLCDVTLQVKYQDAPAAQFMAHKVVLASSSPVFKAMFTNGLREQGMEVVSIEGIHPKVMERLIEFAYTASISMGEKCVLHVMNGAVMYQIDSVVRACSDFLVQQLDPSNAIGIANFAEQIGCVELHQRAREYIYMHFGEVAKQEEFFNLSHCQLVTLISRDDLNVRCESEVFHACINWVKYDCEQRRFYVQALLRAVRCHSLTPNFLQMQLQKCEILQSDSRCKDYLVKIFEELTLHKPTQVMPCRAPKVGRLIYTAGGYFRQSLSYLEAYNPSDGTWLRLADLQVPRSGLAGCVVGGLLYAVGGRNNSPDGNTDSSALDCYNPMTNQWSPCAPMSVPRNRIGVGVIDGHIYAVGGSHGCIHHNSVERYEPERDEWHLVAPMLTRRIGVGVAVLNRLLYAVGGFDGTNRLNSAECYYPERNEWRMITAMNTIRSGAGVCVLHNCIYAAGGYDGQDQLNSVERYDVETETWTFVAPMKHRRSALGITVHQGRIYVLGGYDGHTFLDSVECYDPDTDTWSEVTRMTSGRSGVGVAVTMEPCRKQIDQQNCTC
# AML12 [3] = experiment: Antioxidant activity against free fatty acid induced oxidative stress in mouse AML12 cells assessed as downregulation of Keap1 protein expression level incubated for 24 hrs by immunoblot analysis; assay type: functional, cell-based
# AML12 [4] = experiment: Antioxidant activity against free fatty acid induced oxidative stress in mouse AML12 cells assessed as upregulation of Nrf2 protein expression level incubated for 24 hrs by immunoblot analysis; assay type: functional, cell-based
# AML12 [5] = experiment: Antioxidant activity against free fatty acid induced oxidative stress in mouse AML12 cells assessed as upregulation of HO-1 protein expression level incubated for 24 hrs by immunoblot analysis; assay type: functional, cell-based
# AML12 [6] = experiment: Antioxidant activity against free fatty acid induced oxidative stress in mouse AML12 cells assessed as upregulation of NQO1 protein expression level incubated for 24 hrs by immunoblot analysis; assay type: functional, cell-based
# AML12 [7] = experiment: Antioxidant activity against free fatty acid induced oxidative stress in mouse AML12 cells assessed as increase in GSH level; assay type: functional, cell-based
# AML12 [8] = experiment: Antioxidant activity against free fatty acid induced oxidative stress in mouse AML12 cells assessed as increase in SOD level; assay type: functional, cell-based
# AML12 [9] = experiment: Antioxidant activity against free fatty acid induced oxidative stress in mouse AML12 cells assessed as decrease in ROS level incubated for 24 hrs; assay type: functional, cell-based
# Mus musculus [10] = experiment: Antioxidant activity against MCD diet-induced oxidative stress in C57Bl/6 mouse model of NAFLD assessed as downregulation of liver Keap1 protein expression level at 1 mg/kg,ip administrated for 4 weeks by immunoblot analysis; assay type: functional, organism-based
# Mus musculus [11] = experiment: Antioxidant activity against MCD diet-induced oxidative stress in C57Bl/6 mouse model of NAFLD assessed as upregulation of liver Nrf2 protein expression level at 1 mg/kg,ip administrated for 4 weeks by immunoblot analysis; assay type: functional, organism-based
# Mus musculus [12] = experiment: Antioxidant activity against MCD diet-induced oxidative stress in C57Bl/6 mouse model of NAFLD assessed as downregulation of liver Keap1 protein expression level at 1 mg/kg,ip administrated for 4 weeks by immunohistochemical staining assay; assay type: functional, organism-based
# Mus musculus [13] = experiment: Antioxidant activity against MCD diet-induced oxidative stress in C57Bl/6 mouse model of NAFLD assessed as downregulation of liver Keap1 protein expression level at 1 mg/kg,ip administrated for 4 weeks by immunofluorescence staining analysis; assay type: functional, organism-based
# Mus musculus [14] = experiment: Antioxidant activity against MCD diet-induced oxidative stress in C57Bl/6 mouse model of NAFLD assessed as upregulation of liver Nrf2 protein expression level at 1 mg/kg,ip administrated for 4 weeks by immunofluorescence staining analysis; assay type: functional, organism-based
# Mus musculus [15] = experiment: Antioxidant activity against MCD diet-induced oxidative stress in C57Bl/6 mouse model of NAFLD assessed as upregulation of liver HO-1 protein expression level at 1 mg/kg,ip administrated for 4 weeks by immunohistochemical staining assay; assay type: functional, organism-based
# Mus musculus [16] = experiment: Antioxidant activity against MCD diet-induced oxidative stress in C57Bl/6 mouse model of NAFLD assessed as upregulation of liver NQO1 protein expression level at 1 mg/kg,ip administrated for 4 weeks by immunohistochemical staining assay; assay type: functional, organism-based
# Mus musculus [17] = experiment: Antioxidant activity against MCD diet-induced oxidative stress in C57Bl/6 mouse model of NAFLD assessed as increase in CAT level in liver at 1 mg/kg,ip administrated for 4 weeks; assay type: functional, organism-based
# Mus musculus [18] = experiment: Antioxidant activity against MCD diet-induced oxidative stress in C57Bl/6 mouse model of NAFLD assessed as increase in SOD level in liver at 1 mg/kg,ip administrated for 4 weeks; assay type: functional, organism-based
# Mus musculus [19] = experiment: Antioxidant activity against MCD diet-induced oxidative stress in C57Bl/6 mouse model of NAFLD assessed as increase in GSH level in liver at 1 mg/kg,ip administrated for 4 weeks; assay type: functional, organism-based
# Mus musculus [20] = experiment: Antioxidant activity against MCD diet-induced oxidative stress in C57Bl/6 mouse model of NAFLD assessed as decrease in liver ROS level at 1 mg/kg,ip administrated for 4 weeks by immunostaining analysis; assay type: functional, organism-based
# Mus musculus [21] = experiment: Antioxidant activity against MCD diet-induced oxidative stress in C57Bl/6 mouse model of NAFLD assessed as reduction of serum TG level at 1 mg/kg,ip administrated for 4 weeks; assay type: functional, organism-based
# Mus musculus [22] = experiment: Antioxidant activity against MCD diet-induced oxidative stress in C57Bl/6 mouse model of NAFLD assessed as decrease in histopathological change in liver at 1 mg/kg,ip administrated for 4 weeks by hematoxylin and eosin staining based assay; assay type: functional, organism-based
# [23] = Acute toxicity in zebrafish at < 2.5 uM observed at 120 hrs post fertilization; design: species or system Danio rerio; conditions: in vivo
# [24] = Acute toxicity in zebrafish assessed as pericardial edema at 5 uM observed at 120 hrs post fertilization; design: species or system Danio rerio; conditions: in vivo
# [25] = Acute toxicity in zebrafish assessed as death at 5 uM observed at 120 hrs post fertilization; design: species or system Danio rerio; conditions: in vivo
# [26] = Acute toxicity in zebrafish assessed as death at 10 uM observed at 72 hrs post fertilization; design: species or system Danio rerio; conditions: in vivo
# [27] = Acute toxicity in C57BL/6 mouse assessed as visceral damage at 20 mg/kg,ip qd administrated for 3 consecutive days and measured on day 4 by hematoxylin and eosin staining based assay; assay type: organism-based; conditions: in vivo
# [28] = Acute toxicity in C57BL/6 mouse assessed as histopathological change in heart at 20 mg/kg,ip qd administrated for 3 consecutive days and measured on day 4 by hematoxylin and eosin staining based assay; assay type: organism-based; conditions: in vivo
# [29] = Acute toxicity in C57BL/6 mouse assessed as histopathological change in liver at 20 mg/kg,ip qd administrated for 3 consecutive days and measured on day 4 by hematoxylin and eosin staining based assay; assay type: organism-based; conditions: in vivo
# [30] = Acute toxicity in C57BL/6 mouse assessed as histopathological change in lung at 20 mg/kg,ip qd administrated for 3 consecutive days and measured on day 4 by hematoxylin and eosin staining based assay; assay type: organism-based; conditions: in vivo
# [31] = Acute toxicity in C57BL/6 mouse assessed as histopathological change in spleen at 20 mg/kg,ip qd administrated for 3 consecutive days and measured on day 4 by hematoxylin and eosin staining based assay; assay type: organism-based; conditions: in vivo
# [32] = Acute toxicity in C57BL/6 mouse assessed as visceral cellular damage at 20 mg/kg,ip qd administrated for 3 consecutive days and measured on day 4 by hematoxylin and eosin staining based assay; assay type: organism-based; conditions: in vivo
# [33] = Acute toxicity in C57BL/6 mouse assessed as visceral inflammatory cell infiltration at 20 mg/kg,ip qd administrated for 3 consecutive days and measured on day 4 by hematoxylin and eosin staining based assay; assay type: organism-based; conditions: in vivo
# Chain of Protein cereblon/Kelch-like ECH-associated protein 1 (Mus musculus) (Q8C7D2 whole entry, looked up): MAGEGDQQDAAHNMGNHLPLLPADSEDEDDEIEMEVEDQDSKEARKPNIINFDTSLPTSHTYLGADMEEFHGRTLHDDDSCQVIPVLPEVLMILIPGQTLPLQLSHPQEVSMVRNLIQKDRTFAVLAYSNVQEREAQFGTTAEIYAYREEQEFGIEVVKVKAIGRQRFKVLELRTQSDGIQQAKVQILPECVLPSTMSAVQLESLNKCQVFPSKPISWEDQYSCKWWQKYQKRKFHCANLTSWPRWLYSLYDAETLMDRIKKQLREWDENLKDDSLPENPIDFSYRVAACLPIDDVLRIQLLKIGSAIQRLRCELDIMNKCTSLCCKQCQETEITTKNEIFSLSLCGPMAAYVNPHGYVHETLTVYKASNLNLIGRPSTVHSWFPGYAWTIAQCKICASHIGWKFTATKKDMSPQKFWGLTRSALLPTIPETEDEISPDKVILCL
# Chain of Protein cereblon/Kelch-like ECH-associated protein 1 (Mus musculus) (Q9Z2X8 whole entry, looked up): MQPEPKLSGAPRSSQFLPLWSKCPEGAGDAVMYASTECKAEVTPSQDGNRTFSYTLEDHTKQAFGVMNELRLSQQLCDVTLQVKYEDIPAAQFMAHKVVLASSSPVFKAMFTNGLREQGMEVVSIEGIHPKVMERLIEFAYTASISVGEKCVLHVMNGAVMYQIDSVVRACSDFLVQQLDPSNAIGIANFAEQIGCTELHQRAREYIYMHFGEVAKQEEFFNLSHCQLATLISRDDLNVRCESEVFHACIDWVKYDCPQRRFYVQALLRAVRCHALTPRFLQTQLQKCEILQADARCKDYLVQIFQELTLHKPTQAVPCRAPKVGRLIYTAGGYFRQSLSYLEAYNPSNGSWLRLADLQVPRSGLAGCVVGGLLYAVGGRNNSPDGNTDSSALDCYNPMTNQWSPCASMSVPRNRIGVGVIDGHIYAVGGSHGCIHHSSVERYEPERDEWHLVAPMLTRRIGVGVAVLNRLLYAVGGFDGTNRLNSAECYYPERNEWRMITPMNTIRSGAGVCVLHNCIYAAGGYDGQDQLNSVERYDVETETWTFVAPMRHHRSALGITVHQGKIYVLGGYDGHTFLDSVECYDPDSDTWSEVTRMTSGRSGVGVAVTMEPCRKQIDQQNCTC
structure (smiles),measurement,setting,value
Nc1cccc2c1C(=O)N(C1CCC(=O)NC1=O)C2=O (stereo not given),Activity,[1],inactive
"CN1C(=O)CCC(N2C(=O)c3cccc(NCCCCCNC(=O)[C@]45CCC(C)(C)C[C@H]4[C@H]4C(=O)C=C6C7(C)C=C(C#N)C(=O)C(C)(C)[C@@H]7CC[C@@]6(C)[C@]4(C)CC5)c3C2=O)C1=O (single isomer, unassigned)",Activity,[1],inactive
CC1(C)CC[C@]2(C(=O)O)CC[C@]3(C)[C@H](C(=O)C=C4[C@@]5(C)C=C(C#N)C(=O)C(C)(C)[C@@H]5CC[C@]43C)[C@@H]2C1 [BARDOXOLONE],Activity,[1],inactive
same,Kd,[2],48.7 µM
same,Activity,AML12 [3],inactive
same,Activity,AML12 [4],inactive
same,Activity,AML12 [5],inactive
same,Activity,AML12 [6],inactive
same,Activity,AML12 [7],inactive
same,Activity,AML12 [8],Active
same,Activity,AML12 [9],Active
same,Activity,Mus musculus [10],inactive
same,Activity,Mus musculus [11],inactive
same,Activity,Mus musculus [12],inactive
same,Activity,Mus musculus [13],inactive
same,Activity,Mus musculus [14],inactive
same,Activity,Mus musculus [15],inactive
same,Activity,Mus musculus [16],inactive
same,Activity,Mus musculus [17],Active
same,Activity,Mus musculus [18],Active
same,Activity,Mus musculus [19],Active
same,Activity,Mus musculus [20],Active
same,Activity,Mus musculus [21],Active
same,Activity,Mus musculus [22],Active
same,Activity,[23],Non-Toxic
same,Activity,[24],Toxic
same,Activity,[25],Toxic
same,Activity,[26],Toxic
same,Activity,[27],Non-Toxic
same,Activity,[28],Toxic
same,Activity,[29],Toxic
same,Activity,[30],Toxic
same,Activity,[31],Toxic
same,Activity,[32],Toxic
same,Activity,[33],Toxic

# Source: ChEMBL document CHEMBL5331129, “Discovery of NAFLD-Improving Agents by Promoting the Degradation of Keap1” (J Med Chem, 2023)
